Consider 73 molecules from ChEMBL document CHEMBL3507680, “University of Dundee, Gates Library screen for HepG2 cell viability”.

A short description of the data set: Human HepG2 cell viability assay in 384 well format. It counts as toxicity, cell-based. Details: dose 125 nL, time 70.5 hour; concentration not given beside the values. The settings on record: HepG2 cells, read-out: Inhibition.
For `CN(CCCNC(=O)c1ccccc1OCC(N)=O)CC(F)(F)F`, the cytotoxicity at 70.5 h stood at 1.62%. In the case of `Cc1nc(CSCCC(=O)NCCNC(=O)OC(C)(C)C)cs1` it was 3.27%; in that of `Cc1ccc(-c2nc(C(=O)N3CCCCC3CNS(C)(=O)=O)cs2)cc1` (stereo not drawn), 11%; in that of `COCCC(=O)N1CCC(Nc2ncc(Cl)cn2)CC1`, 0.73%. `Cc1ccc(CNC(=O)N2CCN(C(C)c3cccnc3)CC2)cn1` (stereo not drawn): the cytotoxicity at 70.5 h was -3.85%. The figure for `Cn1cc(N2CCCC(Nc3ccc4c(c3)CCCO4)C2=O)cn1` (stereo not drawn) is -0.945%. Consider `COC1CCN(CCNC(=O)NC(C)c2cccc(Cl)c2)CC1` (stereo not drawn), for which the cytotoxicity at 70.5 h is -0.888%. The figure for `CC(NC(=O)COc1cccc[n+]1[O-])C1CC1` (stereo not drawn) is -4.57%; for `COCCN(C(=O)c1nc(-c2ccco2)sc1C)C1CC1` it is -2.88%; for `Cc1ccc(-n2cnnn2)cc1NCC(=O)Nc1cc(F)ccc1F` it is -66.2%. The figure for `Cc1ccc(-n2cnnn2)cc1NCC(=O)Nc1ccccc1Cl` is -101%. For `CCC(C)NC(=O)c1nnn(-c2cccc3c2CCN(C)C3)c1C` (stereo not drawn), the cytotoxicity at 70.5 h came out at 2.37%. In the case of `COCCCNC(=O)Nc1cccc2c1CCN(S(C)(=O)=O)C2` it was 21.4%. The figure for `CC(C)NC(=O)Nc1cccc2c1CCN(S(C)(=O)=O)C2` is -1.67%; for `CS(=O)(=O)N1CCc2c(cccc2NC(=O)NC2CCCC2)C1` it is -3.1%; for `CCSc1ccc(C(=O)NCCc2nnc(-c3ccco3)[nH]2)cn1` it is -6.64%.

Consider `COc1ccc(COCC(=O)NC2CCc3nc(C)cn3C2)cc1` (stereo not drawn), for which the cytotoxicity at 70.5 h is -2.95%. Regarding `O=C(Nc1nnc[nH]1)C(c1cccc(F)c1)N1CCOCC1` (stereo not drawn), the cytotoxicity at 70.5 h is -1.33%. The figure for `CC(C)(CC(=O)Nc1cccc(Oc2ccccn2)c1)C(=O)O` is -5.32%; for `Cc1cc(NS(=O)(=O)c2cccs2)ccc1-n1cccc1C(=O)O` it is -1.78%; for `COCCN(Cc1cccnc1)S(=O)(=O)c1cc(C)ccc1F` it is -5.06%. The figure for `Cn1ccnc1CNC(=O)N(CCCO)C1CCc2ccccc21` (stereo not drawn) is -4.97%; for `Cc1nc(C)n(CC2CCCCN2Cc2nnc(-c3ccco3)o2)n1` (stereo not drawn) it is -6.54%; for `COCCN(Cc1cccnc1)S(=O)(=O)c1ccc(F)cc1C` it is -4.8%. As for `COc1ccccc1CN(C)C(=O)CN1CC(n2nc(C)cc2C)C1`, the cytotoxicity at 70.5 h was -2.12%. The figure for `Cc1nc(C)n(CC2CCCN(Cc3nnc(C4CC4)o3)C2)n1` (stereo not drawn) is -7.21%; for `Cc1cn2c(n1)CCC(NC(=O)COCCOc1ccccc1)C2` (stereo not drawn) it is -8.88%.

In the case of `Cc1nc(C)n(CC2CCCN2Cc2nnc(-c3ccco3)o2)n1` (stereo not drawn), the cytotoxicity at 70.5 h stood at 11.1%. As to `COc1cccc(CNc2cc(CO)ccc2Cl)c1`, the cytotoxicity at 70.5 h is -8.65%.

For the molecule `CC(C)Oc1ncc(C(=O)N2CCCC(C(=O)O)C2)cc1Cl` (stereo not drawn), the cytotoxicity at 70.5 h was -7.98%. `CN(Cc1ccc(Cl)s1)C(=O)Cn1nc(-c2ccc(F)cc2)oc1=O`: the cytotoxicity at 70.5 h is -13.3%.

For the molecule `CN(Cc1cccc(Cl)c1)C(=O)Cn1nc(-c2ccc(F)cc2)oc1=O`, the cytotoxicity at 70.5 h is -2.8%. With `Cc1cc(=O)n2ncnc2n1CC(O)COCc1ccccc1Cl` (stereo not drawn), the cytotoxicity at 70.5 h is -9.61%. The figure for `CC(C)c1ccc(CS(=O)(=O)CC(=O)NCc2ccccc2F)cc1` is -17.3%; for `O=C(NCC(O)c1ccc(F)c(F)c1)c1ccccc1F` (stereo not drawn) it is -9.96%; for `Cc1ccccc1C(=O)NCC(O)c1ccc(F)c(F)c1` (stereo not drawn) it is -5.82%. With `COc1ncccc1CNC(=O)CN1CCCCCC1=O`, the cytotoxicity at 70.5 h is -16.5%.

`CC(C)Cc1noc(CN2CCCN(C(=O)c3cccc(Cl)c3)CC2)n1`: the cytotoxicity at 70.5 h turned out to be 23.3%. Take `O=C(CS(=O)(=O)Cc1ccc(F)cc1)NCc1ccccc1F`: the cytotoxicity at 70.5 h was -8.79%. In the case of `Cc1ccc(C(=O)NCC(O)c2ccc(F)c(F)c2)c(=O)[nH]1` (stereo not drawn), the cytotoxicity at 70.5 h is -10.6%. `CC(C)Oc1ncc(C(=O)N2CCC(CC(N)=O)CC2)cc1Cl`: the cytotoxicity at 70.5 h is -8.52%. Take `O=C(CS(=O)(=O)Cc1ccccc1)NCc1ccccc1F`: the cytotoxicity at 70.5 h turned out to be 22.1%. Take `COC(C)C(=O)Nc1cc(C(=O)N2CCSCC2)ccc1C` (stereo not drawn): the cytotoxicity at 70.5 h was determined as 0.013%. For `COCCCNC(=O)Nc1cc(-c2ccccc2C)nn1CCO`, the cytotoxicity at 70.5 h was -5.71%. Regarding `COC(=O)CCN1CCC(C(=O)c2cc(F)ccc2F)CC1`, the cytotoxicity at 70.5 h is -12.5%. Consider `CN(C)C(=O)Cc1nc(CN2CCCCC2Cn2cncn2)cs1` (stereo not drawn), for which the cytotoxicity at 70.5 h worked out at 23.2%. As to `Cc1ccccc1-c1cc(NC(=O)NC2CC2)n(CCO)n1`, the cytotoxicity at 70.5 h came out at 1.97%.

In the case of `O=C(NCCN1C(=O)CCC1=O)c1nc2ccccc2c(=O)[nH]1`, the cytotoxicity at 70.5 h was -12.2%. `Cc1n[nH]c(C2CN(C(=O)c3coc(Br)c3)CCO2)n1` (stereo not drawn): the cytotoxicity at 70.5 h was -10.2%. In the case of `Cc1n[nH]c(C2CN(C(=O)c3ccc4c(c3)COC4)CCO2)n1` (stereo not drawn) it was -1.57%; in that of `O=C(CNC(=O)c1c(F)cccc1Cl)Nc1ccc(F)cn1`, -12.6%; in that of `Cc1n[nH]c(C2CN(C(=O)c3csnn3)CCO2)n1` (stereo not drawn), -11.9%. With `Cc1csc(NC(=O)c2cccnc2N2CCOCC2)n1`, the cytotoxicity at 70.5 h turned out to be 18.7%. Regarding `CNC(=O)CS(=O)(=O)Cc1ccc(OC)c(F)c1`, the cytotoxicity at 70.5 h was -11.9%.

Take `CN(C)C(=O)Cc1nc(CN2CCCC2Cn2cncn2)cs1` (stereo not drawn): the cytotoxicity at 70.5 h is -10.9%. The figure for `Cc1nnc(CN(C)C2CCN(CCc3cccs3)C2)n1C` (stereo not drawn) is 15.2%; for `Cc1cccc(C(=O)N2CCN(c3ccccc3F)CC2)n1` it is -7.27%. For the molecule `CN(CC(=O)NC1CC1)S(=O)(=O)c1ccc(F)cc1Cl`, the cytotoxicity at 70.5 h was -3.95%. With `CCCc1nnc(NC(=O)NC2CCOc3ccccc32)s1` (stereo not drawn), the cytotoxicity at 70.5 h was -4.65%. For the molecule `CC(=O)c1c(F)cccc1N1CCC(C(N)=O)CC1`, the cytotoxicity at 70.5 h is -1.92%. As for `CC(=O)N1CCN(C(=O)CN2CCN(c3cccc(C)c3)CC2)CC1`, the cytotoxicity at 70.5 h was -6.8%. The figure for `CCc1noc(C)c1C(=O)Nc1cnn(CC(=O)NC2CCCC2)c1` is -1.44%.

In the case of `COc1ccc(C(=O)Nc2c(C)nn(C(C)C)c2C)cc1`, the cytotoxicity at 70.5 h was determined as 23.1%.

In the case of `CCN(CC)C(=O)CCNC(=O)c1ccccc1N1CCOCC1`, the cytotoxicity at 70.5 h was determined as 23.2%.

`CCCNC(=O)CCNC(=O)c1ccccc1N1CCOCC1`: the cytotoxicity at 70.5 h is -4.62%.

For the molecule `Cc1cccc(CNCCOc2ccc(S(C)(=O)=O)cc2)c1`, the cytotoxicity at 70.5 h is -0.853%. Take `CCN(CC)c1ccc(NS(=O)(=O)c2cnn(CC)c2)cn1`: the cytotoxicity at 70.5 h was found to be 1.09%. On to `Cc1noc(C)c1CNC(=O)N1CCC(OCC2CC2)CC1`, for which the cytotoxicity at 70.5 h was 25.4%.

Take `Cc1ccc(OCC(=O)NCc2sccc2C)nc1`: the cytotoxicity at 70.5 h is -3.68%.

In the case of `CCN(C1CCN(c2cccc(F)c2C(C)=O)CC1)S(C)(=O)=O`, the cytotoxicity at 70.5 h is -5.28%. On to `CN(Cc1nnc(C2CC2)n1C)C1CCN(CCc2ccccc2)C1` (stereo not drawn), for which the cytotoxicity at 70.5 h is -3.03%.

Consider `CCCN1CCCN(c2ncccc2C(=O)N2CCCCC2)CC1`, for which the cytotoxicity at 70.5 h is -2.98%. In the case of `O=C(Nc1ccc(F)cc1)C(c1ccccc1)N1CCOCC1` (stereo not drawn) it was 5.55%.
